# Measured values taken from PubChem BioAssay (NCI).
# Where “and” joins values, the source holds several entries; their conditions need not be identical. Equal entries are not always repeated.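 Growth conditions: 96-well plates. Treatment: test compound, 48 hours, 5 concentrations. Analysis: linear interpolation between bracketing concentrations; unreached endpoints set to highest concentration. The concentration for 50% growth inhibition is given as GI50. TGI: concentration producing complete growth inhibition.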
# Experiments:
# Assay in all cases: growth of human tumour cells (NCI), 48 h
# NCI-H23 lung = test system: NCI-H23 lung
# SN12C renal = test system: SN12C renal
# COLO 205 colon = test system: COLO 205 colon
# SR leukemia = test system: SR leukemia
# HOP-62 NSCLC = test system: HOP-62 NSCLC
# 786-0 renal = test system: 786-0 renal
# M14 melanoma = test system: M14 melanoma
# HT29 colon = test system: HT29 colon
# HOP-92 NSCLC = test system: HOP-92 NSCLC
# SF-295 CNS = test system: SF-295 CNS
# UACC-257 melanoma = test system: UACC-257 melanoma
# TK-10 renal = test system: TK-10 renal
# UACC-62 melanoma = test system: UACC-62 melanoma
# RPMI-8226 leukemia = test system: RPMI-8226 leukemia
# PC-3 prostate = test system: PC-3 prostate
# LOX IMVI melanoma = test system: LOX IMVI melanoma
# HCC-2998 colon = test system: HCC-2998 colon
# U251 CNS = test system: U251 CNS
# MOLT-4 leukemia = test system: MOLT-4 leukemia
# SF-539 CNS = test system: SF-539 CNS
# OVCAR-4 ovarian = test system: OVCAR-4 ovarian
# SK-MEL-28 melanoma = test system: SK-MEL-28 melanoma
# HS 578T breast = test system: HS 578T breast
# MDA-MB-231 breast = test system: MDA-MB-231 breast
# DU-145 prostate = test system: DU-145 prostate
# K-562 leukemia = test system: K-562 leukemia
# EKVX NSCLC = test system: EKVX NSCLC
# UO-31 renal = test system: UO-31 renal
# KM12 colon = test system: KM12 colon
# NCI-H460 lung = test system: NCI-H460 lung
# NCI/ADR-RES ovarian = test system: NCI/ADR-RES ovarian
# NCI-H226 lung = test system: NCI-H226 lung
# OVCAR-3 ovarian = test system: OVCAR-3 ovarian
# NCI-H522 lung = test system: NCI-H522 lung
# SNB-19 CNS = test system: SNB-19 CNS
# BT-549 breast = test system: BT-549 breast
# SW-620 colon = test system: SW-620 colon
# SNB-75 CNS = test system: SNB-75 CNS
# CCRF-CEM leukemia = test system: CCRF-CEM leukemia
# T-47D breast = test system: T-47D breast
# MDA-MB-435 = test system: MDA-MB-435
# HCT-116 colon = test system: HCT-116 colon
# MDA-N = test system: MDA-N
# SF-268 CNS = test system: SF-268 CNS
# MCF7 breast = test system: MCF7 breast
# IGROV1 ovarian = test system: IGROV1 ovarian
# A498 renal = test system: A498 renal
# SK-OV-3 ovarian = test system: SK-OV-3 ovarian
# OVCAR-5 ovarian = test system: OVCAR-5 ovarian
# SK-MEL-5 melanoma = test system: SK-MEL-5 melanoma
# CAKI-1 renal = test system: CAKI-1 renal
# OVCAR-8 ovarian = test system: OVCAR-8 ovarian
# RXF 393 renal = test system: RXF 393 renal
# HL-60(TB) leukemia = test system: HL-60(TB) leukemia
# A549 NSCLC = test system: A549 NSCLC
# SK-MEL-2 melanoma = test system: SK-MEL-2 melanoma
# HCT-15 colon = test system: HCT-15 colon
# MALME-3M melanoma = test system: MALME-3M melanoma
# ACHN renal = test system: ACHN renal
compound,measurement,setting,value
NC(=S)N/N=C/c1ncccc1N,TGI,NCI-H23 lung,6.83 µM and > 3.07 µM
same,GI50,SN12C renal,0.789 µM
same,TGI,SN12C renal,16.5 µM and > 10 µM
same,GI50,COLO 205 colon,2.54 µM
same,TGI,COLO 205 colon,12.1 µM and > 10 µM
same,TGI,SR leukemia,18.9 µM and > 10 µM
same,GI50,HOP-62 NSCLC,0.739 µM
same,TGI,HOP-62 NSCLC,13.1 µM and 9.78 µM
same,GI50,786-0 renal,0.419 µM
same,TGI,786-0 renal,> 33.6 µM
same,TGI,M14 melanoma,5.27 µM and 2.62 µM
same,GI50,HT29 colon,2.19 µM
same,TGI,HT29 colon,> 63.4 µM
same,GI50,HOP-92 NSCLC,> 87.2 µM
same,TGI,HOP-92 NSCLC,> 100 µM
same,GI50,SF-295 CNS,0.654 µM
same,TGI,SF-295 CNS,10.7 µM and 5.07 µM
same,TGI,UACC-257 melanoma,> 80.7 µM
same,GI50,TK-10 renal,50.5 µM
same,TGI,TK-10 renal,> 100 µM
same,GI50,UACC-62 melanoma,0.338 µM
same,TGI,UACC-62 melanoma,7.67 µM and > 10 µM
same,GI50,RPMI-8226 leukemia,1.45 µM
same,TGI,RPMI-8226 leukemia,> 100 µM
same,GI50,PC-3 prostate,6.5 µM
same,TGI,PC-3 prostate,> 100 µM
same,GI50,LOX IMVI melanoma,0.439 µM
same,TGI,LOX IMVI melanoma,8.25 µM and > 10 µM
same,GI50,HCC-2998 colon,1.14 µM
same,TGI,HCC-2998 colon,> 100 µM
same,GI50,U251 CNS,0.659 µM
same,TGI,U251 CNS,> 100 µM
same,GI50,MOLT-4 leukemia,1.04 µM
same,TGI,MOLT-4 leukemia,44.8 µM and > 10 µM
same,TGI,SF-539 CNS,1.23 µM and 0.673 µM
same,GI50,OVCAR-4 ovarian,3.57 µM
same,TGI,OVCAR-4 ovarian,> 50 µM
same,GI50,SK-MEL-28 melanoma,12.6 µM
same,TGI,SK-MEL-28 melanoma,> 100 µM
same,GI50,HS 578T breast,37.5 µM
same,TGI,HS 578T breast,> 100 µM
same,GI50,MDA-MB-231 breast,3.79 µM
same,TGI,MDA-MB-231 breast,> 100 µM
same,GI50,DU-145 prostate,1.04 µM
same,GI50,K-562 leukemia,4.82 µM
same,TGI,K-562 leukemia,> 93.4 µM
same,GI50,EKVX NSCLC,5.13 µM
same,TGI,EKVX NSCLC,> 100 µM
same,GI50,UO-31 renal,0.293 µM
same,TGI,UO-31 renal,3.69 µM and 1.41 µM
same,GI50,KM12 colon,5.38 µM
same,TGI,KM12 colon,> 100 µM
same,GI50,NCI-H460 lung,0.654 µM
same,TGI,NCI-H460 lung,12.6 µM and > 10 µM
same,GI50,NCI/ADR-RES ovarian,1.66 µM
same,TGI,NCI/ADR-RES ovarian,14.9 µM and 8.77 µM
same,GI50,NCI-H226 lung,1.01 µM
same,TGI,NCI-H226 lung,8.24 µM and > 10 µM
same,GI50,OVCAR-3 ovarian,2.54 µM
same,TGI,OVCAR-3 ovarian,> 56.6 µM
same,GI50,NCI-H522 lung,1.71 µM
same,TGI,NCI-H522 lung,6.62 µM and > 10 µM
same,GI50,SNB-19 CNS,1.78 µM
same,TGI,SNB-19 CNS,> 84.9 µM
same,GI50,BT-549 breast,2.96 µM
same,TGI,BT-549 breast,> 100 µM
same,GI50,SW-620 colon,1.45 µM
same,TGI,SW-620 colon,> 48.4 µM
same,GI50,SNB-75 CNS,0.674 µM
same,TGI,SNB-75 CNS,25.3 µM and > 8.46 µM
same,GI50,CCRF-CEM leukemia,1.14 µM
same,TGI,CCRF-CEM leukemia,> 58.4 µM
same,GI50,T-47D breast,1.92 µM
same,TGI,T-47D breast,23.2 µM and > 10 µM
same,GI50,MDA-MB-435,5.17 µM
same,TGI,MDA-MB-435,> 100 µM
same,GI50,HCT-116 colon,1.16 µM
same,TGI,HCT-116 colon,> 33.7 µM
same,TGI,MDA-N,> 10 µM
same,GI50,SF-268 CNS,0.731 µM
same,TGI,SF-268 CNS,51.9 µM and > 8.29 µM
same,GI50,MCF7 breast,0.32 µM
same,TGI,MCF7 breast,27.2 µM and > 10 µM
same,GI50,IGROV1 ovarian,0.807 µM
same,TGI,IGROV1 ovarian,> 100 µM
same,TGI,A498 renal,> 73.1 µM
same,GI50,SK-OV-3 ovarian,3.24 µM
same,TGI,SK-OV-3 ovarian,51.3 µM and > 10 µM
same,GI50,OVCAR-5 ovarian,5.98 µM
same,TGI,OVCAR-5 ovarian,> 100 µM
same,GI50,SK-MEL-5 melanoma,0.534 µM
same,TGI,SK-MEL-5 melanoma,22.3 µM and > 10 µM
same,GI50,CAKI-1 renal,0.357 µM
same,TGI,CAKI-1 renal,> 38.5 µM
same,TGI,OVCAR-8 ovarian,> 100 µM
same,GI50,RXF 393 renal,0.489 µM
same,TGI,RXF 393 renal,> 47.5 µM
same,GI50,HL-60(TB) leukemia,0.867 µM
same,TGI,HL-60(TB) leukemia,6.45 µM and > 6.69 µM
same,GI50,A549 NSCLC,3.16 µM
same,TGI,A549 NSCLC,> 100 µM
same,GI50,SK-MEL-2 melanoma,75.7 µM
same,TGI,SK-MEL-2 melanoma,> 100 µM
same,GI50,HCT-15 colon,3.14 µM
same,TGI,HCT-15 colon,> 100 µM
same,GI50,MALME-3M melanoma,3 µM
same,TGI,MALME-3M melanoma,> 90.5 µM
C#CCSC(C=C=C)P(=O)(OC(C)C)OC(C)C (centres undefined),TGI,NCI-H23 lung,> 100 µM
same,TGI,SN12C renal,88.3 µM
same,TGI,COLO 205 colon,> 100 µM
same,TGI,SR leukemia,> 100 µM
same,TGI,HOP-62 NSCLC,> 100 µM
same,TGI,786-0 renal,> 100 µM
same,TGI,M14 melanoma,> 100 µM
same,TGI,ACHN renal,> 100 µM
same,TGI,HT29 colon,94.5 µM
same,TGI,HOP-92 NSCLC,> 100 µM
same,TGI,SF-295 CNS,> 100 µM
same,TGI,UACC-257 melanoma,> 100 µM
same,TGI,TK-10 renal,> 100 µM
same,TGI,UACC-62 melanoma,> 100 µM
same,TGI,RPMI-8226 leukemia,> 100 µM
same,TGI,PC-3 prostate,> 100 µM
same,TGI,LOX IMVI melanoma,> 100 µM
same,TGI,HCC-2998 colon,75.1 µM
same,TGI,U251 CNS,> 100 µM
same,TGI,MOLT-4 leukemia,65.2 µM
same,TGI,OVCAR-4 ovarian,> 100 µM
same,TGI,SK-MEL-28 melanoma,> 100 µM
same,TGI,HS 578T breast,44.1 µM
same,TGI,MDA-MB-231 breast,> 100 µM
same,TGI,DU-145 prostate,> 100 µM
same,TGI,K-562 leukemia,68.4 µM
same,TGI,EKVX NSCLC,> 100 µM
same,TGI,UO-31 renal,> 100 µM
same,TGI,KM12 colon,> 100 µM
same,TGI,NCI-H460 lung,> 100 µM
same,TGI,NCI/ADR-RES ovarian,> 100 µM
same,TGI,NCI-H226 lung,> 100 µM
same,TGI,OVCAR-3 ovarian,> 100 µM
same,TGI,NCI-H522 lung,83.6 µM
same,TGI,SNB-19 CNS,> 100 µM
same,TGI,BT-549 breast,82.8 µM
same,TGI,SW-620 colon,> 100 µM
same,TGI,SNB-75 CNS,> 100 µM
same,TGI,T-47D breast,> 100 µM
same,TGI,MDA-MB-435,> 100 µM
same,TGI,HCT-116 colon,62.8 µM
same,TGI,MDA-N,> 100 µM
same,TGI,SF-268 CNS,> 100 µM
same,TGI,MCF7 breast,> 100 µM
same,TGI,IGROV1 ovarian,> 100 µM
same,TGI,A498 renal,> 100 µM
same,TGI,SK-OV-3 ovarian,> 100 µM
same,TGI,OVCAR-5 ovarian,> 100 µM
same,TGI,SK-MEL-5 melanoma,> 100 µM
same,TGI,CAKI-1 renal,> 100 µM
same,TGI,OVCAR-8 ovarian,> 100 µM
same,TGI,RXF 393 renal,> 100 µM
same,TGI,HL-60(TB) leukemia,> 100 µM
same,TGI,A549 NSCLC,> 100 µM
same,TGI,SK-MEL-2 melanoma,> 100 µM
same,TGI,HCT-15 colon,> 100 µM
same,TGI,MALME-3M melanoma,> 100 µM
